Measurements taken from the supplement of paper PMC5722580.

Columns and labels:
KAI3 = experiment: drug sensitivity score (viability inhibition); higher = more sensitive; conditions: 72 h; IL2 2.5 ng/ml
Procedure: (§1)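 NK-cell leukemia/lymphoma cell lines (3,000 cells/well) were cultured with IL2 2.5 ng/ml in 384-well drug plates (5-8 concentrations over a 10,000-fold range) for 72 h at 37 C; viability was read with CellTiter-Glo. DSS is a normalised area under the dose-response curve; the experiment was repeated twice.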

KHYG-1 = experiment: as above; conditions: 72 h; IL2 2.5 ng/ml
Procedure: as §1

NK-92 = experiment: as above; conditions: 72 h; IL2 2.5 ng/ml
Procedure: as §1

NK-YS = experiment: as above; conditions: 72 h; IL2 2.5 ng/ml
Procedure: as §1

NKL = experiment: as above; conditions: 72 h; IL2 2.5 ng/ml
Procedure: as §1

SNK6 = experiment: as above; conditions: 72 h; IL2 2.5 ng/ml
Procedure: as §1

YT = experiment: as above; conditions: 72 h; IL2 2.5 ng/ml
Procedure: as §1

HEK293-SIE STAT3 WT = experiment: drug sensitivity score (inhibition of STAT3 luciferase reporter); higher = stronger inhibition; conditions: 6 h; STAT3: WT; IL6 100 ng/ml
Procedure: (§2)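 HEK293 cells with a STAT3-inducible (SIE) luciferase reporter, stably expressing WT STAT3 (IL6 100 ng/ml) or Y640F STAT3 (no IL6), were incubated 6 h with drugs in 384-well plates (5-8 concentrations over a 10,000-fold range); luciferase was read with ONE-Glo. DSS is a normalised area under the dose-response curve; values are the mean of two experiments.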

HEK293-SIE STAT3 Y640F = experiment: as above; conditions: 6 h; IL6 0 ng/ml
Procedure: as §2

SMILES	drug sensitivity score (KAI3)	drug sensitivity score (KHYG-1)	drug sensitivity score (NK-92)	drug sensitivity score (NK-YS)	drug sensitivity score (NKL)	drug sensitivity score (SNK6)	drug sensitivity score (YT)	drug sensitivity score (HEK293-SIE STAT3 WT)	drug sensitivity score (HEK293-SIE STAT3 Y640F)
COc1cc(Nc2ncc(F)c(Nc3ccc4c(n3)N(COP(=O)(O)O)C(=O)C(C)(C)O4)n2)cc(OC)c1OC [Fostamatinib]	7.41 DSS	1.22 DSS	3.43 DSS	1.04 DSS	4.15 DSS	3.04 DSS	2.81 DSS	9.75 DSS	2.93 DSS
CC(C)NC[C@@H](C(=O)N1CCN(c2ncnc3c2[C@H](C)C[C@H]3O)CC1)c1ccc(Cl)cc1 [GDC-0068]	0 DSS	3.15 DSS	0.75 DSS	1.41 DSS	1.24 DSS	1.47 DSS	0.319 DSS	4.1 DSS	0.85 DSS
C[C@@H]1C=C2C(=O)O[C@@H]3CC[C@H](C1)[C@]23O [Galiellalactone]	5 DSS	4.09 DSS	3.98 DSS	3.55 DSS	1.09 DSS	6.92 DSS	1.84 DSS	0 DSS	0 DSS
COc1cc2c(cc1-c1c(C)noc1C)ncc1[nH]c(=O)n([C@H](C)c3ccccn3)c12 [I-BET151]	4.86 DSS	13.3 DSS	1.34 DSS	12.2 DSS	8.89 DSS	11.6 DSS	7.05 DSS	11.5 DSS	4.4 DSS
CC(C)n1nc(-c2ccc3oc(N)nc3c2)c2c(N)ncnc21 [INK128]	7.66 DSS	7.21 DSS	10.7 DSS	11.8 DSS	16.2 DSS	8.08 DSS	11.9 DSS	13.8 DSS	12 DSS
C#Cc1cccc(Nc2ncnc3cc4c(cc23)OCCOCCOCCO4)c1 [Icotinib]	0.075 DSS	0.998 DSS	2.41 DSS	0.207 DSS	0 DSS	2.53 DSS	0.21 DSS	2.75 DSS	0 DSS
CC[C@H](Nc1ncnc2[nH]cnc12)c1nc2cccc(F)c2c(=O)n1-c1ccccc1 [Idelalisib]	1.38 DSS	0.4 DSS	9.76 DSS	0.598 DSS	1.96 DSS	5.48 DSS	1.42 DSS	0 DSS	3.9 DSS
O=C(Cc1ccc(-c2ccc(OCCN3CCOCC3)cc2)cn1)NCc1ccccc1 [KX2-391]	22.4 DSS	31.6 DSS	32.4 DSS	28.1 DSS	31.2 DSS	31.7 DSS	31.7 DSS	0 DSS	0 DSS
NS(=O)(=O)c1cccc2c1C(=O)c1cccc(O)c1C2=O [LLL12]	18.9 DSS	22.9 DSS	23.1 DSS	15 DSS	24.9 DSS	28 DSS	18.2 DSS	17.1 DSS	12.4 DSS
C[C@]12O[C@H](C[C@]1(O)CO)n1c3ccccc3c3c4c(c5c6ccccc6n2c5c31)CNC4=O [Lestaurtinib]	18.3 DSS	22 DSS	14.3 DSS	12.4 DSS	14.6 DSS	13 DSS	13.5 DSS	20.7 DSS	10.8 DSS
